These results are taken from ChEMBL document CHEMBL1158462, “Recent advances in the development of polyamine analogues as antitumor agents” (J Med Chem, 2009).

A value given as a limit tells only on which side of the number the result lay.

One assay relates to LNCaP. The assay is described as follows: Antitumor activity against human LNCAP cells. The assay is classed as functional, cell-based.
A further assay relates to DU-145. Description: Antitumor activity against human DU145 cells. In kind it is functional, cell-based.
For another assay, the system named is PC-3. The assay is described as follows: cells. As to conditions: Homo sapiens.
A further assay relates to DuPro. Description: Antitumor activity against human DuPro cells. In kind it is functional, cell-based.
The next assay deals with MCF7. Description: cells. In kind it is functional, cell-based. As to conditions: Homo sapiens.
Assay [1] deals with T1, Histone deacetylase (Homo sapiens) (UniProt Q13547+O15379+Q9UBN7+Q92769+Q9UQL6+Q8WUI4+Q9BY41+Q96DB2+P56524+Q9UKV0+Q969S8). To be noted: HeLa, at 5 µM.
Description: Inhibition of HDAC from human HeLa cells assessed as of histone H3 acetylation at 5 uM
A further assay has as its system MCF-10A. The assay is described as follows: cells. In kind it is functional, cell-based. To be noted: Homo sapiens.
For another assay, the system named is NCI-H157. The assay is described as follows: Antitumor activity against human NCI-H157 cells by MTT assay. The assay is classed as functional, cell-based. Background: Tetrazolium dyes change colour on reduction, which living cells bring about.
Assay [2] is described as follows: Antitumor activity against human H82 cells. The assay is classed as functional, cell-based. As to conditions: NCI-H82.
In assay [3] the target is T1, Histone deacetylase (Homo sapiens). The assay is described as follows: Inhibition of HDAC from human HeLa cells assessed as fold induction of alpha tubulin acetylation. The assay is classed as cell-based.
The next assay relates to A549. The assay is described as follows: Antitumor activity against human A549 cells. In kind it is functional, cell-based.
The test system of a further assay is NCI-H69. Description: Antitumor activity against human H69 cells. In kind it is functional, cell-based.
Another assay is described as follows: cells. To be noted: Mus musculus, ML1.
Assay [4] in a line: Antitumor activity against human U251MG cells. In kind it is functional, cell-based. To be noted: U-251.
The subject of another assay is HT-29. Description: Antitumor activity against human HT-29 cells. The assay is classed as functional, cell-based.
Another assay deals with Malme-3M. Description: Antitumor activity against human MALME-3M cells. The assay is classed as functional, cell-based.
Another assay concerns L1210. The assay is described as follows: Antitumor activity against mouse L1210 cells. The assay is classed as functional, cell-based.
Another assay relates to Enterocytozoon bieneusi. Description: Antimicrobial activity against Enterocytozoon bieneusi. In kind it is functional, organism-based.
The test system of another assay is MDA-MB-435. Description: Antitumor activity against human MDA-MB-435 cells. The assay is classed as functional, cell-based.

Description for MCF-10A: Antitumor activity against human MCF10A cells
Description for MCF7: Antitumor activity against human MCF7 cells
Description for PC-3: Antitumor activity against human PC3 cells

Usually IC50 stands for the concentration needed to halve the response being measured. A lower IC50 goes with higher potency. Turning to `CCNC/C=C\CNCCCCNCCCCNCCCCNCC`, the IC50 came out at 80 nM in the assay on LNCaP, 250 nM with DU-145, 80 nM in the assay on PC-3 and 80 nM in the assay on DuPro.

Usually inhibition stands for the percentage by which the read-out fell short of the control. Read a high inhibition as a response far below the control. As to `Nc1ccccc1NC(=O)c1ccc(CNC(=O)CCCCC(=O)NCCCNCCCCNCCC(c2ccccc2)c2ccccc2)cc1`, the IC50 with MCF7 and in the assay with MCF-10A was over 30000 nM each time. Further, in assay [1], the inhibition came to 48.4%.

`CCNCCCNCCCNCCCNCC1CCCCCC1`: the half-inhibitory concentration (IC50) (in the assay with NCI-H157; in assay [2]) was 700 nM throughout.

As to `Cc1ccc(CNCCCCNC(=O)CCCCCC(=O)NCc2ccc(C(=O)Nc3ccccc3N)cc2)cc1`, the IC50 in the assay with MCF7 is 900 nM; in the assay with MCF-10A, 24000 nM. For the same molecule, the inhibition in assay [1] is 48.1%.

Take `CC(C)(C)c1ccc(CNCCCCNCCCNC(=O)CCCCCC(=O)NO)cc1`: the fold change (FC) in assay [3] came out at 253.

Take `FC(F)(F)Sc1ccc(CNCCCNCCCNCCCNCc2ccc(SC(F)(F)F)cc2)cc1`: in the assay with NCI-H157, half-maximal inhibition (IC50) was put at 3600 nM.

Turning to `CCCCNCCCCNCCCCNCCCNCC`, inhibition in the assay with NCI-H157 was half-maximal at 2200 nM (IC50).

Consider `CCNC[C@H]1C[C@@H]1CNCCCCNC[C@H]1C[C@@H]1CNCC`, for which the IC50 in the assay on DU-145 and in the assay with DuPro was 60 nM in each case.

As for `CCNCCCNCCCNCCCNC(C)CC` (configuration not stated), the IC50 turned out to be 800 nM with A549, 1300 nM with NCI-H157, 800 nM in assay [2] and 800 nM in the assay on NCI-H69.

Turning to `CC(/C=C/C(=O)NO)=C\[C@@H](C)C(=O)c1ccc(N(C)C)cc1` [TRICHOSTATIN], in the assay “cells”, the 50% inhibitory concentration (IC50) was 250 nM.

Consider `CC1(C)C2CCC(CNCCCNCCCNCCCNCC3CCC4CCC3C4(C)C)C1CC2` (configuration not stated), for which inhibition in the assay with NCI-H157 was half-maximal at 2800 nM (IC50).

`CCNCCCNCCCNCCCNCCSCC`: in the assay with NCI-H157, inhibition was half-maximal at 300 nM (IC50).

For the molecule `CCNCCCNCC1CCC1CNCCCNCC` (configuration not stated), the IC50 (in the assay with MCF7; in the assay with DU-145; with A549; in assay [4]; in the assay on HT-29; in the assay with PC-3) was at least 100 nM throughout.

In the assay with NCI-H157, `C=C(C)CNCCCNCCCNCCCNCC` came in with a 50% inhibitory concentration (IC50) of 700 nM.

As to `CC(C)(C)c1ccc(CNCCCCNC(=O)CCCCCCC(=O)c2ncco2)cc1`, the IC50 is 27000 nM with MCF7 and over 30000 nM in the assay on MCF-10A. The molecule further yielded an inhibition in assay [1] of 43.7%.

Take `CCNCCCCNC[C@H]1C[C@@H]1CNCCCCNC[C@H]1C[C@@H]1CNCCCCNCC`: the IC50 with DU-145 and in the assay with DuPro was 120 nM throughout.

The molecule `c1ccc(CCc2ccccc2CNCCCCNCCCNCc2ccccc2CCc2ccccc2)cc1` gave a 50% inhibitory concentration (IC50) in the assay on NCI-H157 of 4200 nM.

Molecule `CCNCCCNCCCNCCCNCC(CC)CC` showed an IC50 in the assay on NCI-H157 of 800 nM.

Turning to `CCNC/C=C\CNCCCCNCCCCNC/C=C\CNCC`, the IC50 in the assay on LNCaP, in the assay with DU-145, with PC-3 and in the assay with DuPro was 140 nM throughout.

As for `O=C(CCCCCCC(=O)NCc1ccc(C(=O)O)cc1)NCCCNCCCCNCC(c1ccccc1)c1ccccc1`, the IC50 in the assay on MCF7 and in the assay on MCF-10A was over 30000 nM each time. The same molecule registered an inhibition in assay [1] of 72.6%.

In the case of `CCNCCCNCCCNCCCNCC` [BIS(ETHYL)NORSPERMINE], the concentration for half-maximal inhibition (IC50) with Malme-3M and with L1210 was 200 nM in each case.

As to `CC(C)c1ccc(CNCCCCNCCCNCc2ccc(C(C)C)cc2)cc1`, it took 4200 nM to reach half-maximal inhibition in the assay on NCI-H157 (IC50).

`CCNCC[C@@H](O)CNCCCCNC[C@H](O)CCNCC` registered an IC50 in the assay on L1210 of 600 nM.

Consider `CCNCCCCNCCCCNCCCCNC/C=C/CNCCCCNCCCCNCCCCNCC`, for which the IC50 in the assay on LNCaP, in the assay on DU-145, in the assay on PC-3, in the assay on Enterocytozoon bieneusi, with MDA-MB-435 and in the assay on DuPro was 130 nM each time.

`CC(C)c1ccc(CNCCCNCCCNCCCNCc2ccc(C(C)C)cc2)cc1`: 4100 nM corresponded to half-maximal inhibition with NCI-H157 (IC50).

Consider `CCNCCCCNC[C@@H]1C[C@H]1NCCCCNCC`, for which the concentration for half-maximal inhibition (IC50) with MCF7 was over 30000 nM; in the assay on DU-145, 250 nM; with A549, 250 nM; in assay [4] it was 250 nM; in the assay with HT-29, 250 nM; in the assay on PC-3 it was 250 nM.

Regarding `CCNCCCNC/C=C\CNCCCNCC`, the concentration for half-maximal inhibition (IC50) with MCF7 came to 9250 nM; in the assay with DU-145 it was 250 nM; in the assay with A549, 250 nM; in assay [4], 250 nM; in the assay on HT-29, 250 nM; in the assay on PC-3 it was 250 nM.

Regarding `CCNCCCCNCCCCNCCCCNCCCCNCC`, the IC50 in the assay with LNCaP, with DU-145 and with PC-3 was 100 nM in each case.

Consider `CCNCCCCNCCCCNCCCCNCCCCNC/C=C/CNCCCCNCCCCNCCCCNCCCCNCC`, for which the IC50 in the assay on LNCaP, in the assay with DU-145, in the assay on PC-3 and with DuPro was 90 nM each time.

`c1ccc(C(CCNCCCNCCCNCCCNCCC(c2ccccc2)c2ccccc2)c2ccccc2)cc1` gave an IC50 in the assay on NCI-H157 of 4100 nM.

For `c1ccc(C(CCNCCCNCCCCNCCCNCCC(c2ccccc2)c2ccccc2)c2ccccc2)cc1`, the IC50 in the assay on NCI-H157 was found to be 3800 nM.
